# Measured values reported in PubChem BioAssay (NCI).
# “And” between values parts separate entries of the source, which are not always exact repeats. Equal entries are not always repeated.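 In this assay, cells in 96-well plates receive the compound at five concentrations for 48 hours. Endpoints are linearly interpolated between the surrounding concentrations. GI50 is the concentration that inhibits growth by half. TGI denotes the concentration required for complete inhibition of growth.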
# Tests used:
# Test in all cases: inhibition of tumour cell growth, NCI panel, 48 h
# [1] = test system: COLO 205 colon
# [2] = test system: MALME-3M melanoma
# [3] = test system: MOLT-4 leukemia
# [4] = test system: SF-268 CNS
# [5] = test system: TK-10 renal
# [6] = test system: HCT-116 colon
# [7] = test system: NCI-H522 lung
# [8] = test system: NCI-H23 lung
# [9] = test system: HCC-2998 colon
# [10] = test system: EKVX NSCLC
SMILES,GI50 [1],TGI [1],GI50 [2] [µM],TGI [2],GI50 [3] [µM],TGI [3],GI50 [4] [µM],TGI [4],GI50 [5],TGI [5],GI50 [6],TGI [6],GI50 [7],TGI [7],GI50 [8] [µM],TGI [8],TGI [9],GI50 [10],TGI [10],GI50 [9] [µM]
CC1=CC(=C(c2ccc(N)cc2)c2ccc(N)cc2)C=CC1=N,0.373 µM and 1.77 µM,1.6 µM and 4.86 µM and 3.38 µM,0.771,6.18 µM and 11.2 µM and 11.7 µM,1.49,6.77 µM and > 67 µM,0.668,14.4 µM and 19.4 µM and 14.5 µM,2.99 µM and 4.98 µM,15.6 µM and 50.2 µM and 19.5 µM,0.457 µM and 2.8 µM,4.15 µM and 25.7 µM and 9.14 µM,1.8 µM and 2.26 µM,17.8 µM and 7.03 µM,0.828,4.97 µM and 16.2 µM and 16.4 µM,2.21 µM and 16 µM and 18.9 µM,1.37 µM and 2.23 µM,20 µM and 70.8 µM and 41.5 µM,
COC(=O)/C=C(\C(=O)OC)c1c2c3c(cc(OC)c(OC)c3c3ccccc13)CCN2C,,31.7 µM,,> 100 µM,,89.5 µM,,> 100 µM,,> 100 µM,,> 100 µM,,74 µM,,> 100 µM,> 100 µM,,> 100 µM,
Cc1ccc(C(SCC(N)C(=O)O)(c2ccc(C)cc2)c2ccc(C)cc2)cc1 (centres undefined),2.14 µM,5.62 µM,11.6,26 µM,3.81,20.2 µM,1.89,19.5 µM,8.31 µM,22.6 µM,0.829 µM,13 µM,1.01 µM,16.7 µM,4.87,> 43.2 µM,11 µM,4.32 µM,39.4 µM,2.5
O=[N+]([O-])c1ccccc1N/N=C\c1c[nH]c2ccccc12,24.5 µM,> 100 µM,28.8,> 87.1 µM,4.42,> 100 µM,9.04,> 100 µM,15 µM,> 72.6 µM,13.7 µM,> 100 µM,11.6 µM,> 100 µM,16.8,> 100 µM,> 100 µM,2.49 µM,> 100 µM,10.9
CN(C)c1ccc(N=C2C=CC(=[N+](C)C)C=C2)cc1,4.2 µM,16.2 µM,8.97,38.6 µM,,,11,68.1 µM,9.24 µM,53.4 µM,4.04 µM,17.8 µM,1.79 µM,4.95 µM,3.52,29.4 µM,65.8 µM,3.58 µM,40.7 µM,9.03
COC(=O)/C(=N\Nc1nc(=S)[nH]n1N)C(C#N)c1ccccc1 (centres undefined),,> 100 µM,,> 100 µM,,> 100 µM,,> 100 µM,,> 100 µM,,> 100 µM,,> 100 µM,,> 100 µM,> 100 µM,,> 100 µM,
CCCCCCCCCCCCCC(=O)OCC1OC(n2cc(F)c(=O)[nH]c2=O)C(NC(=O)OCc2ccccc2)C(OC(=O)CCCCCCCCCCCCC)C1O (centres undefined),,> 100 µM,,> 100 µM,,> 100 µM,,> 100 µM,,> 100 µM,,> 100 µM,,> 100 µM,,> 100 µM,> 100 µM,,> 100 µM,
C=CC(C1=CC(=O)C(OC)=CC1=O)c1ccccc1 (centres undefined),,36.6 µM,,28.7 µM,,5.81 µM,,41.3 µM,,32 µM,,23.4 µM,,23.8 µM,,32.5 µM,30.7 µM,,30.5 µM,
COc1cc(-c2nc3ccccc3s2)ccc1NC(=O)COc1ccc(Cl)cc1,6.45 µM,> 100 µM,5.07,> 100 µM,> 100,> 100 µM,3.02,50.4 µM,2.68 µM,7.06 µM,4.41 µM,> 100 µM,2.71 µM,12.1 µM,3.01,25.6 µM,> 100 µM,8.67 µM,> 100 µM,18.6
COC(=O)C(C(=O)C(=O)Nc1nc(=S)[nH][nH]1)c1csc(-n2nc(-c3ccccc3)cc2-c2ccccc2)n1 (centres undefined),,> 100 µM,,> 100 µM,,> 100 µM,,> 100 µM,,> 100 µM,,> 100 µM,,> 100 µM,,> 100 µM,> 100 µM,,> 100 µM,
N#Cc1ccccc1NC(=O)C(=O)c1c(O)c2ccccc2oc1=O,,,,> 100 µM,,,,> 100 µM,,> 100 µM,,> 100 µM,,> 100 µM,,> 100 µM,> 100 µM,,> 100 µM,
CC(=O)OC1CCCn2c1nc1c2C(=O)C(C)=C(N2CC2)C1=O (centres undefined),,1.2 µM,,0.47 µM,,> 100 µM,,1.05 µM,,7.28 µM,,1.96 µM,,0.636 µM,,0.373 µM,0.722 µM,,1.9 µM,
COc1ccc(C(=O)COC(=O)[C@H](C[Se][Se]C[C@H](NC(=O)c2ccc(Br)cc2F)C(=O)OCC(=O)c2ccc(OC)cc2)NC(=O)c2ccc(Br)cc2F)cc1,2.56 µM,7.95 µM,2.04,4.4 µM,2.63,17.8 µM,0.943,3.21 µM,1.23 µM,3.4 µM,0.949 µM,2.78 µM,0.66 µM,2.02 µM,0.412,1.81 µM,1.85 µM,0.591 µM,2.35 µM,0.617
CC1SC2=NC3=C(c4ccccc4C3=O)C(c3ccc(Cl)cc3)N2C1=O (centres undefined),,> 100 µM,,> 100 µM,,> 100 µM,,> 100 µM,,> 100 µM,,,,87.8 µM,,> 100 µM,> 100 µM,,> 100 µM,
O=C1CCC2CC(C(=O)c3ccccc3)CCC2CN1 (centres undefined) (tested in a mixture with another compound),,> 100 µM,,> 100 µM,,> 100 µM,,> 100 µM,,,,> 100 µM,,> 100 µM,,> 100 µM,> 100 µM,,> 100 µM,
N#Cc1c2c(c(N=P(c3ccccc3)(c3ccccc3)c3ccccc3)n3c1nc1ccccc13)CCCC2,,24.8 µM,,> 100 µM,,64.2 µM,,> 100 µM,,,,> 100 µM,,41.8 µM,,,> 100 µM,,> 100 µM,
N/N=C(\C(=O)Nc1ccc(Cl)cc1Cl)C(c1cnc2ccccc2n1)[N+](=O)[O-] (centres undefined),,,,> 100 µM,,,,> 100 µM,,> 100 µM,,> 100 µM,,> 100 µM,,> 100 µM,> 100 µM,,> 100 µM,
